Reference: article PMC4234468 (PLoS ONE, 2014)

Key:
HA-β2AR [1] = target: T1, HA-β2AR (Homo sapiens, UniProt P07550); test: HA-β2AR internalization quantified by ELISA in HEK-293 cells; assay type: cell-based
T1 construct: host or cells: HEK-293
Method: ELISA assays for the measurement of surface-expressed HA-β2AR and quantification of receptor internalization were performed as described previously. Briefly, HEK-293 cells were transiently transfected with either β2AR-RLuc8 alone or β2AR-RLuc8 and IR-GFP^2. One microgram of each receptor was used, and the total amount of cDNA used for transfection was kept uniform by adding empty pcDNA3.1 vector. […] After 48 h, cells were first subjected to a 2-h starvation period, and then were treated as required in HEPES-modified DMEM with 0.1% BSA for 30 min at 37°C before fixing with 4% paraformaldehyde for 20 min at 4°C. Cells were then washed 3 times in PBS and blocked (PBS containing 1% BSA) for 60 min at room temperature. Cells were kept at room temperature for all of the subsequent steps. First, cells were incubated for 2 h with anti-HA antibody at a 1∶600 dilution. After 3 washes, cells were incubated with anti-rat horseradish peroxidase-conjugated antibody at a 1∶1000 dilution. After extensive washing, the reaction was developed using the 3, 3′, 5, 5′-tetra-methylbenzidine (TMB) liquid substrate system. […] The absorbances were measured at 450 nm using the microplate reader Rosys Anthos 2010 (Anthos Labtec Instruments, Wals, Austria). […]
[…]. Data are expressed as the means ± S.E. from three independent experiments performed in triplicate. […]

[2] = tested on: β2AR in epidermoid carcinoma A431 cells; parameters: method as in PMID 14709719; conditions: cited from earlier work
HA-β2AR [3] = target: T1, HA-β2AR; test: whole-cell radioligand binding assay, [125I]-iodopindolol displacement, HA-β2AR; conditions: HEK-293 cells expressing HA-β2AR alone or with IR
Method: To establish a relationship between the luminescence/fluorescence signals generated by RLuc8 and GFP^2-tagged β2ARs and cell-surface receptor number, radioligand binding assays were carried out on whole cells as previously described [47]. […] An aliquot of cells (∼5×10^5) from each transfection was also transferred into a 60-mm dish for total luminescence/fluorescence measurements as described above. […] Determination of the radioactivity levels was performed in triplicate. Binding parameters were determined from displacement curves generated by a sigmoidal dose-response curve fit (GraphPad Prism 5.0). Receptor density (Bmax), expressed as the receptor number per cell, was calculated as previously described by Ramsay et al. [48]. Whole-cell radioligand binding assays were also performed with cells expressing β2AR alone or in combination with IR.

[4] = tested on: β2AR and IR receptor complexes; test: BRET^2 saturation assay with agonist stimulation, β2AR and IR homo- and heteromers in HEK-293 cells; conditions: data not shown
β2AR-RLuc = β2AR-RLuc fusion construct; ref Vrecl et al. [47]; cited from earlier work

| Compound | amount of surface-expressed β2AR lost to internalization in response to insulin (HA-β2AR [1]) [%] | β2AR internalization (ELISA, Figure S1) (HA-β2AR [1]; insulin 0.1 µM, 30 min, 37°C) | amount of surface-expressed β2AR lost to internalization in response to insulin [2] [%] | competition for binding against [125I]-iodopindolol (HA-β2AR [3]) | change in the BRET^2 signal on agonist stimulation [4] | IC50 (β2AR-RLuc) [nM] |
| --- | --- | --- | --- | --- | --- | --- |
| insulin | ~15 | did not induce marked β2AR internalization | ~30 | neither competed for binding | did not promote any detectable change | – |
| CC(C)NCC(O)COc1cccc2[nH]ccc12 (stereo not shown) [pindolol] | – | – | – | – | – | 0.94 ± 0.06 |
| CC(C)NCC(O)c1ccc(O)c(O)c1 (stereo not shown) [isoproterenol, reference compound] | – | – | – | – | did not promote any detectable change | – |
